Laboratory results as given in patent US6440440B1, “Biocidal benzylbiphenyl derivatives” (priority 1998, dated 2002).

Assays:
Type in all cases: cell-based
Escherichia coli = assay: Primary bacteria screening; set-up: key: score: 3 = complete inhibition of growth, 2 = growth partially controlled; settings: test compound concentration 500 μMol in tryptose broth agar, 27° C.
Method: (§1) The stock solutions with the test compounds were pipetted into multiwell plates and mixed with warm tryptose broth agar (2.6%) in order to reach a test compound concentration of 500 μMol. The medium was allowed to cool and subsequently inoculated with the bacteria. Wells were placed in an incubator at 27° C. and a relative humidity of 70%. After sufficient growth of the untreated cultures, the test was evaluated.
(§2) 3: complete inhibition of bacterial growth
(§3) 2: bacterial growth partially controlled

Pseudomonas aeruginosa = assay: Primary bacteria screening; set-up: key: score: 3 = complete inhibition of growth, 2 = growth partially controlled; settings: test compound concentration 500 μMol in tryptose broth agar, 27° C.
Method: as §1, §2, §3

Providencia rettgeri = assay: Poison plate assay, combinations with BAC; settings: BAC alone 80 μmol
Method: Biocidal activity against bacterial/yeast growth was determined with the poison plate assay. To obtain the required concentrations of the test compound, calculated amounts of stock solutions (DMSO) were pipetted into multi-well plates. Tryptose agar (except for Rhodotorula: PDA) was added aseptically and uniform distribution was obtained by shaking. Each plate was inoculated with a bacterial/yeast suspension. After incubation at 27° C. and 70% relative humidity, for a period long enough to allow complete growth of controls, percentage activity as compared to the control was scored.
Possible synergy was investigated using Limpel's formula (Richter, D. L., Pestic. Sci. 1987, 19: 309-315): [formula]
where EC is the expected additive response, or calculated activity, X is the observed percentage control when compound A is applied alone and Y is the observed percentage control when compound B is applied alone. Synergy was considered to occur when the observed effect, or measured activity, of a combination of both compounds was greater than the corresponding EC value.
The table C.7 to C.8 below enumerate the measured and calculated activities of BAC and compounds 20, 42 and 40 when tested as a single test compound or as a combination against Providencia rettgeri. BAC (benzalconium chloride) is a well-bacteride and was tested at a concentration of 40 and 80 μmol. Compounds 20, 40 and 42 were tested at a concentration of 10, 20, 40, 80 and 160 μmol. When a synergistic effect was observed, the “measured” and “calculated” activity are indicated with a bold typeface.

Row | Compound | E. coli (growth inhibition score) (Escherichia coli) | P. aeruginosa (growth inhibition score) (Pseudomonas aeruginosa) | Measured activity (Providencia rettgeri) [%]
1 | CN1CCC(N2CCC(C(c3ccccc3)c3ccc(-c4ccccc4)cc3)CC2)CC1 (stereo not drawn) [compound 19] | 1 | 1 | 
2 | CN(C1CCN(C2CCNCC2)CC1)C(c1ccccc1)c1ccc(-c2ccccc2)cc1.O.O (stereo not drawn) [compound 48] | 1 | 1 | 
3 | CN(C)CCCNCC=C(c1ccccc1)c1ccc(-c2ccccc2)cc1 [compound 36] | 1 | 1 | 
4 | CN(C)CCC1CCN(CC=C(c2ccccc2)c2ccc(-c3ccccc3)cc2)CC1.Cl.Cl [compound 24] | 1 | 1 | 
5 | CN(C)CCCN1CCC(N2CCC(C(c3ccccc3)c3ccc(-c4ccccc4)cc3)CC2)CC1.Cl.Cl.Cl (stereo not drawn) [compound 15] | 1 | 1 | 
6 | NCCCN1CCC(C(c2ccccc2)c2ccc(-c3ccccc3)cc2)CC1.NCCCN1CCC(C(c2ccccc2)c2ccc(-c3ccccc3)cc2)CC1.O.O.O=C(O)C(O)C(O)C(=O)O.O=C(O)C(O)C(O)C(=O)O.O=C(O)C(O)C(O)C(=O)O (single isomer, unassigned) [compound 84] | 3 | 3 | 
7 | CN(C)CCCN(C)CCCN(C)C(c1ccccc1)c1ccc(-c2ccccc2)cc1.Cl.Cl.Cl.O (stereo not drawn) [compound 54] | 3 | 1 | 
8 | Cl.Cl.c1ccc(C(=C2CCN(C3CCNCC3)CC2)c2ccc(-c3ccccc3)cc2)cc1 [compound 3] | 1 | 1 | 
9 | CN(C)CCC1CCN(CCC(O)(c2ccc(-c3ccccc3)cc2)c2ccc(Cl)cc2Cl)CC1.Cl.Cl (racemic) [Co. No. 34, (±)-α-[(1,1 ′-biphenyl)-4-yl]-a-(2,4-dichlorophenyl)-4-[2-(dimethylamino)ethyl]-1-piperidine-propanol dihydrochloride] | 1 | 1 | 
10 | NCCCNCCC(c1ccccc1)c1ccc(-c2ccccc2)cc1.NS(=O)(=O)O.NS(=O)(=O)O (stereo not drawn) [compound 67] | 3 | 2 | 
11 | CN(CCCN)CCCNC(c1ccccc1)c1ccc(-c2ccccc2)cc1.O=C(O)C(=O)O.O=C(O)C(=O)O.O=C(O)C(=O)O (stereo not drawn) [compound 53] | 3 | 1 | 
12 | Cl.Cl.Fc1ccc(-c2ccc(C(c3ccc(Cl)cc3)C3CCN(C4CCNCC4)CC3)cc2)cc1 (stereo not drawn) [compound 8] | 3 | 3 | 
13 | CC(C)O.Cl.Cl.Cl.O.c1ccc(-c2ccc(C(c3ccccc3)C3CCN(C4CCN(C5CCNCC5)CC4)CC3)cc2)cc1 (stereo not drawn) [compound 44] | 3 | 1 | 
14 | CNCCNCCC(c1ccccc1)c1ccc(-c2ccccc2)cc1.Cl.Cl (racemic) [Co. No. 56, (±)-N-[3-([1,1′-biphenyl]-4-yl)-3-phenylpropyl]-N′-methyl-1,2-ethanediamine dihydrochloride] | 3 | 1 | 
15 | NCCCNCCC(c1ccccc1)c1ccc(-c2ccccc2)cc1.NCCCNCCC(c1ccccc1)c1ccc(-c2ccccc2)cc1.O=C(O)C(O)C(O)C(=O)O.O=C(O)C(O)C(O)C(=O)O.O=C(O)C(O)C(O)C(=O)O (single isomer, unassigned) [compound 69] | 3 | 1 | 
16 | CN(C)CCCN(C)CC=C(c1ccccc1)c1ccc(-c2ccccc2)cc1 [compound 35] | 3 | 1 | 
17 | benzalconium chloride [BAC, reference compound] |  |  | 100
